# From patent publication US20100311805A1, “COMBINATION OF HISTONE DEACETYLASE INHIBITORS AND RADIATION” (NOVARTIS AG, priority 2005, published 2010)
# Experiments:
# H460 cell line [1] = assay: Annexin V-FITC/PI flow cytometry analysis of apoptosis, H460; assay type: cell-based, human
# Description: (§1) LBH589 enhances radiation induced apoptosis. To study the effect of HDAC inhibition by LBH589 on apoptosis three in vitro experiments were performed. FIG. 2 show results from Annexin V-FITC/PI flow cytometry analysis of apoptosis. H23 and H460 cells lines were treated with 25 nM LBH589 for 18 hrs then irradiated with 3 Gy. Twenty (20) hours later, cells were harvested, stained with Annexin-FITC and PI, and analyzed by flow cytometry. Shown is the number of apoptotic cells and standard error (n=3) for each treatment condition. *P<0.05 compared to control.
# HDAC4 [2] = assay: HDAC4 immunostaining (compartmentalization), H460; assay type: cell-based, human
# Description: (§2) Immunostaining of HDAC4 was performed on H23 and H460 cell lines to identify the effect of LBH589 on HDAC4 compartmentalization. […] When H460 cells were treated with 3 Gy, HDAC4 localized to the nucleus at 2 hours and minimal HDAC4 was present in the cytoplasm.
# HDAC4 [3] = assay: HDAC4 immunostaining (compartmentalization), H23; assay type: cell-based, human; details: LBH589 added prior to IR
# Description: as §2
# H23 cell line [4] = assay: Nuclear morphology (pyknotic nuclei) by DAPI staining, H23; assay type: cell-based, human
# Description: (§3) To confirm the ability of LBH589 to sensitize human lung cancer cell lines to radiation induced apoptosis, nuclear morphology studies were performed. […] DAPI staining of cells treated with LBH589 and IR. Cells were subcultured onto slides and treated with 25 nM LBH589 for 18 hours followed by 3 Gy. Eighteen (18) hours later cells were fixed and stained with DAPI. Shown is the percentage of pyknotic nuclei and standard error (n=3) determined by manual counts from microscopy. *P<0.05 compared to control.
# γ-H2AX foci [5] = assay: γ-H2AX foci immunostaining, H23; assay type: cell-based, human
# Description: LBH589 prolongs the duration of radiation induced γ-H2AX foci. Immunostaining was performed to study γ-H2AX foci present at DNA double strand breaks. […] The red staining of γ-H2AX foci and blue staining of the DAPI counterstain are shown. 3 Gy induced γ-H2AX foci as early as 30 minutes following treatment. These foci disappeared by 6 hrs in cell lines treated with IR alone. […] In comparison, LBH589 added 18 hours prior to IR prolonged the duration of γ-H2AX foci for up to 24 hours after IR (42 hours after LBH589 administration). […] LBH589 prolongs duration of γ-H2AX foci in irradiated lung cancer cells. H23 cell line received the indicated treatment of 25 nM LBH589 and/or 3 Gy. Anti-γ-H2AX antibody was used for immunostaining with rhodamine red labeled secondary antibody (red). Cells were counterstained with DAPI (blue). Shown are representative photographs of the H23 cells line (A) at the indicated time points after IR. Arrows point to apoptotic cells. B, shown is the mean and standard error of cells with γ-H2AX nuclear foci. *P<0.05 compared to control.
# cleaved caspase3 [6] = assay: Western immunoblot for cleaved caspase3, H460 whole cell lysates; assay type: cell-based, human
# Description: (§4) Western Immunoblots. LLC, H450 and H23 cells are serum starved overnight in DMEM/F-12 media (Gibco). Cells are then treated with 10 μM of Compound III for 1 hour and/or irradiated with 3 Gy. Cells are washed twice with PBS and lysis buffer ([…] Tris, 150 mM NaCl, 1 mM EDTA, 1% Triton X-100, 2.5 mM Na PP, 1 mM phenylmethylsulfonyl fluoride, and 1 μg/mL leupeptin) are added. Protein concentration are quantified by the Bio-Rad method. Twenty (20) μg of total protein are loaded into each well and separated by 7% or 10% SDS-PAGE gel, depending on the size of the target protein being investigated. The proteins are transferred onto nitrocellulose membranes (Hybond ECL; Amersham, Arlington Heights, Ill.) and probed with primary antibodies to caspase3, cleaved caspase3, phospho-Akt, Akt, PDGFR α and β (Cell Signaling; 1:1000). Blots are washed and probed with goat anti-rabbit secondary antibody (Sigma; 1:1000). Cleavage of caspase 3 was analyzed to verify the role of apoptosis in cells treated with LBH589 and radiation. Western blot analysis was performed on H23 and H460 whole cell lysates. […] LBH589 induced caspase3 cleavage. H23 and H460 cells were treated with 25 nM LBH589 for 18 hours then irradiated with 3 Gy. Six hours later, protein was extracted, quantified, run in a 12% SDS-polyacrylamide gel, transferred, and probed with antibodies to cleaved caspase3 and actin. […]
# γ-H2AX foci [7] = assay: γ-H2AX foci immunostaining, H460; assay type: cell-based, human
# H460 cells = assay: Tumor growth delay in H460 xenograft tumor model; assay type: in vivo, nude mice; details: 10-fold increase in tumor volume as reference
# Description: Tumor Volume Assessment. LLC, H450 and H23 cells are implanted into C57BL6 and nude mice, respectively. 106 viable cells suspended in 0.1 mL of cell medium are injected s.c. into the hind-limb. Each group of mice are comprised of 12 mice which are stratified into two groups to create approximately the same mean tumor volume. The mean volume of the tumors in mice at the time of treatment (day 0) with radiation, control, irradiated, LBH589 alone and LBH589 given prior to radiation are approximately 200 mm^3. Irradiated mice are immobilized with 140 μL of ketamine, and the entire body are shielded with lead, except for the tumor-bearing hind limb. A total dose of 21 Gy are administered in seven fractionated doses on days 0-4, 7 and 8. The LBH589 group receive of LBH589 administered p.o. via esophageal injection on days-1 and 6.
# Tumor volumes were measured on days 0, 2, 4, 7, 9, 11, 14, 16, 18, 20 and 22 using skin calipers. Tumor volumes were calculated from a formula (a×b×c/2) that are derived from the formula for an ellipsoid (πd3/6). Data were calculated as the percentage of original (day 0) tumor volume and graphed as fractional tumor volume±SD for each treatment group. […]
# H460 cells were injected in the hind limb of nude mice and allowed to grow for one week. […] B, shown is the mean tumor growth delay and standard error calculated using a 10-fold increase in tumor volume as reference.
# cleaved caspase3 [8] = assay: Western immunoblot for cleaved caspase3, H23 whole cell lysates; assay type: cell-based, human
# Description: as §4
# H23 cell line [9] = assay: Annexin V-FITC/PI flow cytometry analysis of apoptosis, H23; assay type: cell-based, human
# Description: as §1
# H460 cell lines = assay: Clonogenic analysis of H460 cell lines with LBH589 and 0-6 Gy; assay type: cell-based, human
# Description: Results. LBH589 sensitizes NSCLC to the cytotoxic effects of ionizing radiation. Clonogenic analysis of H460 cell lines was performed using LBH589 and 0-6 Gy. […] Cells were suspended, counted with a hemocytometer, and plated at specific cell densities. Once attached, cells were treated with LBH589 for 1 hour or 18 hours followed by 0, 2, 4, or 6 Gy. Media was changed after IR and the cells were allowed to proliferate for 10 days. Shown is the average and standard error of the relative fractions of colonies (n=3).
# H460 cell line [10] = assay: Nuclear morphology (pyknotic nuclei) by DAPI staining, H460; assay type: cell-based, human
# Description: as §3
# [11] = mouse, in vivo
# Description: LBH589 enhances tumor growth delay in vivo. H460 cells were injected into the hind limb of mice. After tumor formation the mice were treated with two oral doses of 40 mg LBH589 and/or five 3 Gy fractions over seven days. […] IR alone delayed growth by approximately 4 days (P<0.001).
# [12] = 25 nM LBH589 18 hours prior to 3 Gy, 18 hours later
# [13] = 25 nM LBH589 18 hours prior to IR 3 Gy, 6 hours later
structure (smiles),measurement,setting,value
"Cc1[nH]c2ccccc2c1CCNCc1ccc(/C=C/C(=O)NO)cc1 [LBH589, N-hydroxy-3-[4-[[[2-(2-methyl-1H-indol-3-yl)-ethyl]-amino]methyl]phenyl]-2E-2-propenamide]",number of apoptotic cells,"H460 cell line [1]; 25 nM LBH589 18 hrs prior to 3 Gy, 20 hours later, control 6%",25%
same,number of apoptotic cells,H460 cell line [1]; LBH589 alone 25 nM,only a minimal increase
same,HDAC4 nuclear localization,HDAC4 [2]; LBH589 added prior to IR 3 Gy,markedly limited HDAC4 nuclear localization
same,HDAC4 staining / localization,HDAC4 [2]; LBH589 alone,background HDAC4 staining in the cytoplasm and nucleus
same,HDAC4 nuclear localization,HDAC4 [3],A similar effect was seen
same,percentage of pyknotic nuclei,H23 cell line [4]; [12],over 10%
same,apoptotic nuclei,H23 cell line [4]; LBH589 alone,4%
same,cells with γ-H2AX nuclear foci at 24 hours,γ-H2AX foci [5]; 25 nM LBH589 alone,< 5%
same,residual γ-H2AX foci at 24 hours,γ-H2AX foci [5]; 25 nM LBH589 prior to IR 3 Gy,60%
same,duration of γ-H2AX foci after IR,γ-H2AX foci [5]; LBH589 added 18 hours prior to IR 3 Gy,up to 24 hours
same,γ-H2AX foci,γ-H2AX foci [5]; LBH589 alone for 20 hours,modest increase in γ-H2AX foci
same,caspase3 cleavage,cleaved caspase3 [6]; [13],increased levels of caspase3 cleavage
same,caspase3 cleavage,cleaved caspase3 [6]; treatment with 25 nM LBH589,increase in caspase3 cleavage was evident
same,cells with γ-H2AX nuclear foci at 24 hours,γ-H2AX foci [7]; 25 nM LBH589 alone,< 5%
same,residual γ-H2AX foci at 24 hours,γ-H2AX foci [7]; 25 nM LBH589 prior to IR 3 Gy,60%
same,tumor growth delay,"H460 cells; LBH589 alone, two oral doses of 40 mg over seven days",two
same,tumor growth delay,H460 cells; combined: two oral doses of 40 mg LBH589 and five 3 Gy fractions over seven days,approximately 20 days
same,"caspase3 cleavage, increase with LBH589 prior to IR",cleaved caspase3 [8]; [13],not as prominent
same,caspase3 cleavage,cleaved caspase3 [8]; treatment with 25 nM LBH589,increase in caspase3 cleavage was evident
same,number of apoptotic cells,"H23 cell line [9]; 25 nM LBH589 18 hrs prior to 3 Gy, 20 hours later, control 7%",30%
same,number of apoptotic cells,H23 cell line [9]; LBH589 alone 25 nM,only a minimal increase
same,colony survival compared to untreated cells,"H460 cell lines; LBH589 1 hour and 18 hours prior to IR (0-6 Gy), 10 days proliferation",synergistic decrease in colony survival
same,plating efficiency,"H460 cell lines; LBH589 alone for 1 hour, compared to the control",no reduced plating efficiency
same,plating efficiency,H460 cell lines; LBH589 alone for 18 hours,significantly reduced plating efficiency
same,percentage of pyknotic nuclei,H460 cell line [10]; [12],over 10%
same,apoptotic nuclei,H460 cell line [10]; LBH589 alone,2%
same,signs of toxicity as monitored by weight loss and mobility,[11],minimal signs of toxicity
